In one test the target is T1, human BACE1(1-460):Fc (Homo sapiens, UniProt P56817).
T1 construct: made in house; host or cells: HEK293 cells, transient transfection, conditioned medium
The experiment in a line: BACE1 mcaFRET Assay. Conditions: FRET substrate 15 micromolar, pH 4.6, 16 to 24 hours at room temperature. The test is classed as biochemical. Here is the method:
(§1) For in vitro enzymatic and cellular assays, test compounds are prepared in DMSO to make up a 10 millimolar stock solution. The stock solution is serially diluted (in a 1:3, 1:2.5, 1:2, or 1:1 dilution series) in DMSO to obtain a final compound concentration of 10 millimolar to 1 micromolar at the first highest concentration of a ten-point dilution curve in a 96-well round-bottom plate right before conducting the in vitro enzymatic and whole assays.
Serial dilutions of test compounds are prepared as described above. Two microliter of each dilution is added to each well on row A to H of a corresponding low protein binding black plate to which 50 microliter of 50 millimolar ammonium acetate, pH 4.6, 1 mM Triton X-100, 1 mg/ml Bovine Serum Albumin, and 15 micromolar of FRET substrate (sequence: (MCA)-S-E-V-N-L-D-A-E-F-R-K(Dnp)-R-R-R-R-NH2) for BACE1 activity are pre-added. The content is mixed well on a plate shaker for 10 min. Fifty microliter of two hundred picomolar human BACE1(1-460):Fc (See: Vasser, et al., Science, 286, 735-741 (1999)) in the same reaction buffer described above is added to the plate containing substrate and test compounds to initiate the reaction. The relative fluorescence unit (RFU) of the mixture at time 0 is recorded at excitation wavelength 330 nm and emission wavelength 400 nm, after brief mixing on a plate shaker. The reaction plate is covered with aluminum foil and kept in a dark humidified oven at room temperature for 16 to 24 hours. The RFU at the end of incubation is recorded with the same excitation and emission setting. The difference of the RFU at time 0 and the end of incubation represents the activity of BACE1 under the compound-treatment. The 10-point inhibition curve was plotted and fitted with the four-parameter logistic equation to obtain the EC50 and IC50 values. (See: Sinha, et al., Nature, 402, 537-540 (2000)). […] Data for selected compounds of the invention tested in this assay are contained in the following table.
Both human (accession number: AF190725) and murine (accession number: NM_011792) BACE1 were cloned from total brain cDNA by […]. The nucleotide sequences corresponding to amino acid sequences #1 to 460 were inserted into the cDNA encoding human IgG1 (Fc) polypeptide (Vassar et al. 1999). This fusion protein of BACE1(1-460) and human Fc, named huBACE1:Fc, was constructed into the pJB02 vector. Human BACE1(1-460):Fc (huBACE1:Fc) and murine BACE1(1-460):Fc (muBACE1:Fc) were transiently expressed in HEK293 cells. 250 μg cDNA of each construct was mixed with Fugene 6 and added to 1 liter HEK293 cells. Four days after the transfection, conditioned media were harvested for purification. Purification of huBACE1:Fc and muBACE1:Fc.
Conditioned media of […] cell transiently transfected with huBACE1:Fc or muBACE1:Fc cDNA were collected. Cell debris was removed by filtering the conditioned media through 0.22 μm sterile filter. 5 ml Protein A-agarose (bed volume) was added to 4 liter conditioned media. This mixture was gently stirred overnight at […]. The Protein A-agarose resin was collected and packed into a low-pressure chromatography column. The column was washed with 20× bed volumes of PBS at flow rate 20 ml per hour. Bound huBACE1:Fc or muBACE1:Fc protein was eluted with 50 mM acetic acid, pH 3.6, at flow rate 20 ml per hour. […] The purity of final product was assessed by electrophoresis in 4-20% Tris-Glycine SDS-PAGE. […]

In the next test the target is T2, beta-secretase activity (Homo sapiens, UniProt P56817).
T2 construct: endogenous in cells; host or cells: HEK293p (ATCC CRL-1573) stably expressing human APP751sw or APP751wt
T2 sequence (P56817 46-501): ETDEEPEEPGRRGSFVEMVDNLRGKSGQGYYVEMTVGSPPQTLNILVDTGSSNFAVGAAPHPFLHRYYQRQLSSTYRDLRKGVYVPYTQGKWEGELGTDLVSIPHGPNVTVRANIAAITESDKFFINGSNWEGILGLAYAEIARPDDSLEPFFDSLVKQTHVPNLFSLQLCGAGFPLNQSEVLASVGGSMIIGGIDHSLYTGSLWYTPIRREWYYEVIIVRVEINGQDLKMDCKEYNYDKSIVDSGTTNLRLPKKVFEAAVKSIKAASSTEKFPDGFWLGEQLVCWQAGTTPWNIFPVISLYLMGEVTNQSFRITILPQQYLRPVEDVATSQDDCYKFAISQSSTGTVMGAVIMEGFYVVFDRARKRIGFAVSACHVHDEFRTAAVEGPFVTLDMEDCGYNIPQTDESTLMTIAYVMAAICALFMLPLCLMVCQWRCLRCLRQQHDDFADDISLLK
The experiment in a line: Whole Cell Assay for Measuring the Inhibition of Beta-Secretase Activity. The test is classed as cell-based. To be noted: HEK293/APP751sw or HEK293/APP751wt cells, 4 to 6 hours at 37C, Abeta, sAPPbeta-lowering effect by sandwich ELISA. Here is the method: as §1
The routine whole cell assay for the measurement of inhibition of beta-secretase activity utilizes the human embryonic kidney cell line HEK293p (ATCC Accession No. CRL-1573) stably expressing a human APP751 cDNA containing the naturally occurring double mutation […] to Asn651Leu652, commonly called the Swedish mutation (noted HEK293/APP751sw) and shown to overproduce Abeta (Citron et al., 1992, Nature 360:672-674). Human embryonic kidney HEK293p cells stably expressing wild-type human APP751 cDNA (noted HEK293/APP751wt) are also used to assess the inhibition of beta-secretase activity. In vitro Aβ reduction assays have been described in the literature (See: Dovey, et al., Journal of Neurochemistry, 76, 173-181 (2001); Seubert, et al., Nature, 361, 260 (1993); and Johnson-Wood, et al., Proc. Natl. Acad. Sci. USA, 94, 1550-1555 (1997))
Cells (HEK293/APP751sw or HEK293/APP751wt, at 3×10^4 cells/well, containing 200 microliters culture media, DMEM containing 10% FBS) are incubated at 37C for 4 to 6 hours in the presence/absence of inhibitors (diluted in DMSO) at the desired concentration. At the end of the incubation, conditioned media are analyzed for beta-secretase activity, for example, by analysis of cleavage fragments, Abeta peptide and sAPPbeta. Abeta peptides are measured by a sandwich ELISA, using monoclonal 266 as a capture antibody and biotinylated 3D6 as reporting antibody. The sAPPbeta fragments are analyzed by a sandwich ELISA, using monoclonal 8E5 antibody as a capture antibody and rabbit polyclonal 192sw or 192wt as a reporting antibody. Note that sAPPbeta is the cleavage product of full length APP by BACE 1. The concentration of sAPPbeta released in the conditioned media following the compound treatment corresponds to the activity of BACE1 under such conditions. The 10-point inhibition curve was plotted and fitted with the four-parameter logistic equation to obtain the EC50 and IC50 values for the Abeta, sAPPbeta-lowering effect. Data for selected compounds of the invention tested in this assay are contained in the following table.
A general note: In an ELISA, binding on a coated surface is turned into a signal by an enzyme label.

The structures appear in SMILES notation. Structures can show the parent of a compound that is named as a salt.

T1 sequence (P56817 22-460): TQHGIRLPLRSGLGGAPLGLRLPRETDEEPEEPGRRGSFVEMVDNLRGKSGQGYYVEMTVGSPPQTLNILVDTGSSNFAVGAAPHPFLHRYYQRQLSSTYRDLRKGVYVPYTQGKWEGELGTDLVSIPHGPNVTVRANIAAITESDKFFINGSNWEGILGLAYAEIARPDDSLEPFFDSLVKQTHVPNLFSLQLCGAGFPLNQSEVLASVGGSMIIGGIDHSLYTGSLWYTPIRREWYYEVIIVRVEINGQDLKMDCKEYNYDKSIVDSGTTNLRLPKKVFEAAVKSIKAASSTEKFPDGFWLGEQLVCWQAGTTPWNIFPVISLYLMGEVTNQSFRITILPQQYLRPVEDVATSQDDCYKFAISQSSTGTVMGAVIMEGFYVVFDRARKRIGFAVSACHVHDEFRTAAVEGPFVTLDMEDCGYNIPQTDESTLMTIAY

On to `CCC(C)Nc1cc(C(=O)NC(Cc2ccccc2)C(O)C2NCCN(C)C2=O)cc(N(C)S(C)(=O)=O)n1` [Example 3, N-[1-(S)-Benzyl-2-hydroxy-2-(4-methyl-3-oxopiperazin-2-yl)-ethyl]-2-(S)-sec-butylamino-6-(methylsulfonyl-methylamino)-isonicotinamide hydrochloride], for which the results for the 50% inhibitory concentration (IC50) against human BACE1(1-460):Fc and at beta-secretase activity were 0.001 µM and 0.041 µM, respectively.
For `CCC(C)Nc1cc(C(=O)N[C@@H](Cc2ccccc2)[C@@H](O)[C@H]2CN(C(C)=O)CCN2)cc(N(C)S(C)(=O)=O)n1` (stereo partly drawn) [Example 7, N-[(1S,2R)-2-(R)-(4-Acetylpiperazin-2-yl)-1-benzyl-2-hydroxyethyl]-2-sec-butylamino-6-(methanesulfonyl-methylamino)-isonicotinamide hydrochloride], in that order: 0.003 µM and 0.045 µM.
Take `CC(=O)NC(Cc1cc(F)cc(F)c1)C(O)C1CCC(OCc2ccccc2)CN1` [Example 19, N-{(1S,2R)-2-[(5R,2R)-5-Benzyloxy-2-piperidin-2-yl]-1-(3,5-difluoro-benzyl)-2-hydroxy-ethyl}-acetamide hydrochloride]: the results for the 50% inhibitory concentration (IC50) against human BACE1(1-460):Fc and on beta-secretase activity were 13.1 µM and 17.1 µM, respectively.
The corresponding values for `CC(=O)N[C@@H](Cc1cc(F)cc(F)c1)[C@H](O)[C@H]1CC[C@@H](OCCC(C)C)CN1` [Example 55, N-(1S, 2R)-{1-(3,5-Difluoro-benzyl)-2-hydroxy-2-[(5R,2R)-5-(3-methyl-butoxy)-piperidin-2-yl]-ethyl}-acetamide hydrochloride] are 6.9 µM and 6.1 µM.
For the compound `CC(=O)N[C@@H](Cc1cc(F)cc(F)c1)[C@H](O)[C@H]1CC[C@@H](OCC(C)C)CN1` [Example 58, N-(1S,2R)-{1-(3,5-Difluoro-benzyl)-2-hydroxy-2-[(5R,2R)-5-isobutoxy-piperidin-2-yl]-ethyl}-acetamide hydrochloride], 6.8 µM corresponded to half-maximal inhibition at human BACE1(1-460):Fc (IC50).

The values above are taken from patent US7618978B2, “Amides as BACE inhibitors” (Eli Lilly and Company, priority 2004, dated 2009).
